# Experimental data as given in patent US10597366B2, “Aryl ethers and uses thereof” (Peloton Therapeutics, Inc., priority 2013, dated 2020).
# Read-outs that look alike come from different tables or passages of the source.
# Experiments:
# [1] = system: VEGFA concentration in medium of 786-O cells; assay: VEGF ELISA Assay; type: cell-based; conditions: Homo sapiens
# Experimental: Each concentration had duplicated wells. About 20 hours later, medium was removed by suction and each well was supplied with 180 μL of growth medium. About 20 μl freshly-made 10× compound stocks were added to each well. […] The EC50 was calculated by GraphPad Prism using the dose-response-inhibition (four parameter) equation. The cell seeded plate was then subjected to CellTiter-Glo luminescence cell viability assay (Promega) by adding 50 μL of Celltiter Glo reagent into each well and shaking the plate for 8 minutes at 550 rpm (Thermomixer R, Eppendorf) then read luminescence signal in plate reader (3 second delay, 0.5 second/well integration time, Synergy 2 multi Detection Microplate reader) immediately.
# [2] = system: 786-O-Hif-Luc cells (luciferase gene driven by multiple HIF responsive elements); assay: Luciferase Assay; type: cell-based; conditions: 24 h, read-out: Mean Luciferease EC50
# Experimental: A pool of infected cells were then selected against 2 μg/mL of puromycin (P8833, Sigma) for 10 days followed by limited dilution to select single clones.
# Each concentration was tested in triplicate. After about 24 hours, luciferase activity was determined using ONE-Glo Luciferase Assay Reagent (E6110, Promega) following the manufacturer's recommended procedure. EC50 were calculated by using Dotmatics software.
# [3] = 786-0, 786-O cells, read-out: Mean VEGF ELISA EC50
# [4] = 786-O-Hif-Luc cells, about 24 hours
# [5] = 786-0, read-out: Mean VEGF ELISA EC50
"EC50 [1, 3]","EC50 [2, 4]",Compound,"EC50 [1, 5]",EC50 [2]
550 nM,420 nM,"N#Cc1cccc(Oc2ccc(S(=O)(=O)C(F)(F)F)c(C#N)c2Br)c1 [Compound 99, 2-Bromo-3-(3-cyanophenoxy)-6-((trifluoromethyl)sulfonyl)benzonitrile]",–,–
680 nM,1400 nM,"N#Cc1cc(F)cc(Oc2ccc(S(=O)(=O)C(F)F)cc2Br)c1 [Compound 132, 3-(2-Bromo-4-((difluoromethyl)sulfonyl)phenoxy)-5-fluorobenzonitrile]",–,–
6 nM,5 nM,"O=S(=O)(c1ccc(Oc2cc(F)cc(Cl)c2)c2c1[C@H](O)C(F)(F)C2)C(F)F [Compound 158, (1S)-4-(3-Chloro-5-fluoro-phenoxy)-7-(difluoromethylsulfonyl)-2,2-difluoro-indan-1-ol]",–,–
4 nM,3 nM,"N#Cc1cc(F)cc(Oc2ccc(S(=O)(=O)C(F)(F)F)c3c2CC(F)(F)[C@H]3O)c1 [Compound 185, (S)-3-((2,2-Difluoro-1-hydroxy-7-((trifluoromethyl)sulfonyl)-2,3-dihydro-1H-inden-4-yl)oxy)-5-fluorobenzonitrile]",–,–
13 nM,11 nM,"O=S(=O)(c1ccc(Oc2cncc(Cl)c2)c2c1[C@H](O)C(F)(F)C2)C(F)(F)F [Compound 186, (S)-4-((5-Chloropyridin-3-yl)oxy)-2,2-difluoro-7-((trifluoromethyl)sulfonyl)-2,3-dihydro-1H-inden-1-ol]",–,–
88 nM,51 nM,"O=S(=O)(CF)c1ccc(Oc2cc(F)c(F)c(F)c2)c2c1[C@H](O)C(F)(F)C2 [Compound 188, (S)-2,2-Difluoro-7-((fluoromethyl)sulfonyl)-4-(3,4,5-trifluorophenoxy)-2,3-dihydro-1H-inden-1-ol]",–,–
69 nM,25 nM,"N#Cc1cncc(Oc2ccc(S(=O)(=O)C(F)(F)F)c3c2C[C@@H](F)[C@H]3O)c1 [Compound 225, 5-(((1S,2R)-2-Fluoro-1-hydroxy-7-((trifluoromethyl)sulfonyl)-2,3-dihydro-1H-inden-4-yl)oxy)nicotinonitrile]",–,–
15 nM,13 nM,"O=S(=O)(c1ccc(Oc2ccc(F)c(F)c2)c2c1[C@H](O)C(F)(F)C2)C(F)(F)F [Compound 233, (S)-4-(3,4-Difluorophenoxy)-2,2-difluoro-7-((trifluoromethyl)sulfonyl)-2,3-dihydro-1H-inden-1-ol]",–,–
16 nM,11 nM,"N#Cc1cccc(Oc2ccc(S(=O)(=O)C(F)F)c3c2CC(F)(F)[C@H]3O)c1 [Compound 236, (S)-3-((7-((difluoromethyl)sulfonyl)-2,2-difluoro-1-hydroxy-2,3-dihydro-1H-inden-4-yl)oxy)benzonitrile]",–,–
26 nM,9 nM,"O=S(=O)(c1ccc(Oc2cncc(F)c2)c2c1[C@H](O)C(F)(F)C2)C(F)(F)F [Compound 309, (S)-2,2-difluoro-4-((5-fluoropyridin-3-yl)oxy)-7-((trifluoromethyl)sulfonyl)-2,3-dihydro-1H-inden-1-ol]",–,–

# Further lines, the compound ahead of its results:
Compound,"EC50 [1, 3]","EC50 [2, 4]","EC50 [1, 5]",EC50 [2]
"N#Cc1c(S(=O)(=O)C(F)(F)F)ccc(Oc2cc(F)cc(Cl)c2)c1Br [Compound 98, 2-Bromo-3-(3-chloro-5-fluorophenoxy)-6-((trifluoromethyl)sulfonyl)benzonitrile]",1580 nM,3300 nM,–,–
"O=S(=O)(c1ccc(Oc2cc(F)cc(Cl)c2)c(C(F)F)c1)C(F)(F)F [Compound 124, 1-(3-Chloro-5-fluorophenoxy)-2-(difluoromethyl)-4-((trifluoromethyl)sulfonyl)benzene]",–,–,400 nM,330 nM
"CS(=O)(=O)c1ccc(Oc2cc(F)cc(F)c2)c2c1C(O)C(F)(F)C2 (centres unmarked) [Compound 159, 4-(3,5-Difluorophenoxy)-2,2-difluoro-7-(methylsulfonyl)-2,3-dihydro-1H-inden-1-ol]",7 nM,5 nM,–,–
"CS(=O)(=O)c1ccc(Oc2cc(F)cc(F)c2)c2c1[C@H](O)C(F)(F)C2 [Compound 161, (S)-4-(3,5-Difluorophenoxy)-2,2-difluoro-7-(methylsulfonyl)-2,3-dihydro-1H-inden-1-ol]",11 nM,4 nM,–,–
"CS(=O)(=NC#N)c1ccc(Oc2cc(F)cc(F)c2)c2c1C(O)C(F)(F)C2 (centres unmarked) [Compound 191, N-((7-(3,5-difluorophenoxy)-2,2-difluoro-3-hydroxy-2,3-dihydro-1H-inden-4-yl)(methyl)(oxo)-λ^6-sulfanylidene)cyanamide]",130 nM,53 nM,–,–
"O=S(=O)(c1ccc(Oc2ccc(F)c(F)c2)c2c1[C@H](O)C(F)(F)C2)C(F)F [Compound 196, (S)-7-((Difluoromethyl)sulfonyl)-4-(3,4-difluorophenoxy)-2,2-difluoro-2,3-dihydro-1H-inden-1-ol]",47 nM,46 nM,–,–
"O=[N+]([O-])c1c(Oc2cc(F)cc(Cl)c2)ccc(C(F)(F)F)c1Cl [Compound 203, 2-Chloro-4-(3-chloro-5-fluorophenoxy)-3-nitro-1-(trifluoromethyl)benzene]",700 nM,630 nM,–,–
"N#Cc1cc(Oc2ccc(S(=O)(=O)C(F)(F)F)c3c2CC(F)(F)[C@H]3O)ccc1F [Compound 228, (S)-5-((2,2-Difluoro-1-hydroxy-7-((trifluoromethyl)sulfonyl)-2,3-dihydro-1H-inden-4-yl)oxy)-2-fluorobenzonitrile]",28 nM,33 nM,–,–
"O=S(=O)(c1ccc(Oc2ccc(F)cc2)c2c1[C@H](O)C(F)(F)C2)C(F)(F)F [Compound 230, (S)-2,2-Difluoro-4-(4-fluorophenoxy)-7-((trifluoromethyl)sulfonyl)-2,3-dihydro-1H-inden-1-ol]",29 nM,16 nM,–,–
"CS(=O)(=O)c1ccc(Oc2cc(Cl)cc(C#N)c2)c2c1[C@H](O)C(F)(F)C2 [Compound 234, (S)-3-Chloro-5-((2,2-difluoro-1-hydroxy-7-(methylsulfonyl)-2,3-dihydro-1H-inden-4-yl)oxy)benzonitrile]",–,–,50 nM,41 nM
"N#Cc1cc(Oc2ccc(S(=O)(=O)C(F)(F)F)c3c2CC(F)(F)[C@H]3O)c[n+]([O-])c1 [Compound 267, (S)-3-cyano-5-((2,2-difluoro-1-hydroxy-7-((trifluoromethyl)sulfonyl)-2,3-dihydro-1H-inden-4-yl)oxy)pyridine 1-oxide]",830 nM,160 nM,–,–
"N#Cc1cc(F)cc(Oc2ccc(C(F)(F)F)c3c2CC(F)(F)[C@H]3O)c1 [Compound 273, 3-[(1S)-2,2-Difluoro-1-hydroxy-7-(trifluoromethyl)indan-4-yl]oxy-5-fluoro-benzonitrile]",6.2 nM,4.6 nM,–,–
"CS(=O)(=O)c1ccc(Oc2cc(F)cc(C#N)c2)c2c1[C@H](O)C(F)(F)[C@@H]2F [Compound 292, 3-fluoro-5-[(1S,3R)-2,2,3-trifluoro-1-hydroxy-7-methylsulfonyl-indan-4-yl]oxy-benzonitrile]",6.2 nM,3.1 nM,–,–
"N#Cc1cncc(Oc2ccc(C(F)(F)F)c3c2CC(F)(F)[C@H]3O)c1 [Compound 303, 5-[(1S)-2,2-difluoro-1-hydroxy-7-(trifluoromethyl)indan-4-yl]oxypyridine-3-carbonitrile]",64 nM,35 nM,–,–
"CS(=O)(=O)c1ccc(Oc2cc(F)cc(Br)c2)c2c1[C@H](O)C(F)(F)C2 [Compound 304, (S)-4-(3-bromo-5-fluorophenoxy)-2,2-difluoro-7-(methylsulfonyl)-2,3-dihydro-1H-inden-1-ol]",62 nM,22 nM,–,–
